Measured values as given in PubChem BioAssay AID248 (DTP/NCI, 2004).
Inconclusive results and toxic doses are left out. Rule as the data show it: active = T/C of 150% or more; inactive = T/C below 125%.

Tested on: L1210 leukemia ip in BDF1 mice, survival T/C
Experiment: NCI In Vivo Anticancer Drug Screen. Data for tumor model L1210 Leukemia (intraperitoneal) in B6D2F1 (BDF1) mice
Details: endpoint: mean survival time, higher = longer survival
Procedure, shortened: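 Ratio derived from survival: compound-dosed mice over vehicle-dosed mice, all bearing a transplantable tumor.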

[1] = dose: 100.0 mg/kg/injection, schedule: Q04DX003 (ip), vehicle: saline with Tween-80
[2] = dose: 200.0 mg/kg/injection, schedule: Q04DX003 (ip), vehicle: saline with Tween-80
[3] = dose: 100.0 mg/kg/injection, schedule: Q01DX001 (ip), vehicle: Klucel (hydroxypropylcellulose) (HPC)
[4] = dose: 200.0 mg/kg/injection, schedule: Q01DX001 (ip), vehicle: Klucel (hydroxypropylcellulose) (HPC)
[5] = dose: 400.0 mg/kg/injection, schedule: Q01DX001 (ip), vehicle: Klucel (hydroxypropylcellulose) (HPC)
[6] = dose: 100.0 mg/kg/injection, schedule: Q01DX009 (ip), vehicle: Klucel (hydroxypropylcellulose) (HPC)
[7] = dose: 100.0 mg/kg/injection, schedule: Q04DX003 (ip), vehicle: Klucel (hydroxypropylcellulose) (HPC)
[8] = dose: 100.0 mg/kg/injection, schedule: Q04DX003 (ip), vehicle: saline
[9] = dose: 200.0 mg/kg/injection, schedule: Q04DX003 (ip), vehicle: Klucel (hydroxypropylcellulose) (HPC)
[10] = dose: 100.0 mg/kg/injection, schedule: Q04DX002 (ip), vehicle: saline with Tween-80
[11] = dose: 200.0 mg/kg/injection, schedule: Q04DX002 (ip), vehicle: saline with Tween-80
[12] = dose: 200.0 mg/kg/injection, schedule: Q01DX009 (ip), vehicle: Klucel (hydroxypropylcellulose) (HPC)
[13] = dose: 400.0 mg/kg/injection, schedule: Q01DX009 (ip), vehicle: Klucel (hydroxypropylcellulose) (HPC)
[14] = dose: 100.0 mg/kg/injection, schedule: Q01DX001 (ip), vehicle: carboxymethylcellulose (CMC)
[15] = dose: 200.0 mg/kg/injection, schedule: Q01DX001 (ip), vehicle: carboxymethylcellulose (CMC)
[16] = dose: 400.0 mg/kg/injection, schedule: Q01DX001 (ip), vehicle: carboxymethylcellulose (CMC)

Measured: T/C

c1cc2cc3c(cc2cc1CC1=NCCc2cc4c(cc21)OCO4)OCO3
inactive: dose: 100.0 mg/kg/injection, schedule: Q04DX003 (ip), vehicle: other 94 % of control | dose: 200.0 mg/kg/injection, schedule: Q01DX009 (ip), vehicle: other 102 % of control | dose: 200.0 mg/kg/injection, schedule: Q04DX003 (ip), vehicle: other 108 % of control | dose: 400.0 mg/kg/injection, schedule: Q01DX009 (ip), vehicle: other 94 % of control | dose: 400.0 mg/kg/injection, schedule: Q04DX003 (ip), vehicle: other 105 % of control

CCOC(=O)C1C(=O)CC2c3nc4ccccc4cc3CN2C1=O (configuration not stated)
inactive: dose: 75.0 mg/kg/injection, schedule: Q01DX001 (ip), vehicle: saline 97 % of control | dose: 150.0 mg/kg/injection, schedule: Q01DX001 (ip), vehicle: saline 114 % of control

CC(=O)OCC1OC(n2c(O)c(/C=C3\C=Nc4ccccc43)sc2=S)C(OC(C)=O)C(OC(C)=O)C1OC(C)=O (configuration not stated)
inactive: dose: 12.5 mg/kg/injection, schedule: Q01DX005 (ip), vehicle: other 94 % of control | dose: 25.0 mg/kg/injection, schedule: Q01DX005 (ip), vehicle: other 91 % of control | dose: 50.0 mg/kg/injection, schedule: Q01DX005 (ip), vehicle: other 92 % of control | dose: 100.0 mg/kg/injection, schedule: Q01DX005 (ip), vehicle: other 111 % of control | dose: 200.0 mg/kg/injection, schedule: Q01DX005 (ip), vehicle: other 94 % of control

CC(=O)Oc1cc(OC(C)=O)c(Oc2cc(OC(C)=O)c(Oc3cc(OC(C)=O)c(OC(C)=O)c(OC(C)=O)c3)c(OC(C)=O)c2)c(OC(C)=O)c1
inactive: dose: 50.0 mg/kg/injection, schedule: Q04DX003 (ip), vehicle: saline with Tween-80 97 % of control | [1] 95 % of control | [2] 95 % of control

O=C1c2ccccc2C(=O)N1Nc1ccccc1
inactive: dose: 5.0 mg/kg/injection, schedule: Q01DX001 (ip), vehicle: carboxymethylcellulose (CMC) 96 % of control | dose: 10.0 mg/kg/injection, schedule: Q01DX001 (ip), vehicle: carboxymethylcellulose (CMC) 113 % of control | dose: 20.0 mg/kg/injection, schedule: Q01DX001 (ip), vehicle: carboxymethylcellulose (CMC) 105 % of control | dose: 40.0 mg/kg/injection, schedule: Q01DX001 (ip), vehicle: carboxymethylcellulose (CMC) 111 % of control | dose: 80.0 mg/kg/injection, schedule: Q01DX001 (ip), vehicle: carboxymethylcellulose (CMC) 94 % of control | dose: 100.0 mg/kg/injection, schedule: Q04DX002 (ip), vehicle: Klucel (hydroxypropylcellulose) (HPC) 110 % of control | dose: 200.0 mg/kg/injection, schedule: Q04DX002 (ip), vehicle: Klucel (hydroxypropylcellulose) (HPC) 97 % of control | dose: 400.0 mg/kg/injection, schedule: Q04DX002 (ip), vehicle: Klucel (hydroxypropylcellulose) (HPC) 103 % of control

CC(C)(C)N(O)C(=O)NCCCl
inactive: [3] 97 % of control | [4] 92 % of control | [5] 97 % of control

O=Cc1cc([N+](=O)[O-])cc(CCl)c1O
inactive: [6] 90 % of control

Cc1nccn1-c1ccc(N=Cc2ccc(N(CCCl)CCCl)cc2Cl)cc1
inactive: dose: 62.5 mg/kg/injection, schedule: Q04DX002 (ip), vehicle: Klucel (hydroxypropylcellulose) (HPC) 102 % of control | dose: 125.0 mg/kg/injection, schedule: Q04DX002 (ip), vehicle: Klucel (hydroxypropylcellulose) (HPC) 98 % of control | dose: 250.0 mg/kg/injection, schedule: Q04DX002 (ip), vehicle: Klucel (hydroxypropylcellulose) (HPC) 106 % of control

O=C(NO)c1cnccn1
inactive: dose: 296.0 mg/kg/injection, schedule: Q01DX015 (ip), vehicle: water 92 % of control | dose: 666.0 mg/kg/injection, schedule: Q01DX015 (ip), vehicle: water 118 % of control | dose: 1000.0 mg/kg/injection, schedule: Q01DX015 (ip), vehicle: water 120 % of control

CCC(CC)(CC)c1ccc2ccccc2c1
inactive: dose: 100.0 mg/kg/injection, schedule: Q01DX001 (ip), vehicle: saline 98 % of control | dose: 200.0 mg/kg/injection, schedule: Q01DX001 (ip), vehicle: saline 96 % of control | dose: 400.0 mg/kg/injection, schedule: Q01DX001 (ip), vehicle: saline 106 % of control

CC(C)(C)c1ccc(OC(=S)Nc2ccccc2)cc1
inactive: [1] 111 % of control | [2] 111 % of control | dose: 400.0 mg/kg/injection, schedule: Q04DX003 (ip), vehicle: saline with Tween-80 103 % of control

Clc1nc(Cl)c2c(ncn2Cc2ccccc2)n1
inactive: dose: 100.0 mg/kg/injection, schedule: Q01DX001 (ip), vehicle: other 95 % of control | dose: 200.0 mg/kg/injection, schedule: Q01DX001 (ip), vehicle: other 104 % of control

N=C(N)c1cccc(OCc2ccccc2)c1
inactive: [3] 90 % of control | [4] 94 % of control | [5] 94 % of control

Nc1ccc(N=Nc2ccccc2)c(N)n1
inactive: [7] 89 % of control | [8] 97 % of control | [9] 90 % of control

O=S(=O)(CCCl)Cc1ccccc1
inactive: [10] 115 % of control | [11] 94 % of control

CCN(CC)C(N)=S
inactive: [6] 108 % of control | [7] 106 % of control | [12] 100 % of control | [9] 103 % of control | [13] 100 % of control | dose: 400.0 mg/kg/injection, schedule: Q04DX003 (ip), vehicle: Klucel (hydroxypropylcellulose) (HPC) 112 % of control

Fc1c(F)c(F)c(/C=N/Nc2nnc(N/N=C/c3c(F)c(F)c(F)c(F)c3F)c3ccccc23)c(F)c1F
inactive: dose: 50.0 mg/kg/injection, schedule: Q01DX001 (ip), vehicle: carboxymethylcellulose (CMC) 93 % of control | [14] 95 % of control | [15] 98 % of control | [16] 95 % of control

C1CCC2C(C1)CCC1C2OCN2CCCCC12 (configuration not stated)
inactive: [10] 104 % of control | [8] 98 % of control | [11] 101 % of control | dose: 200.0 mg/kg/injection, schedule: Q04DX003 (ip), vehicle: saline 98 % of control | dose: 400.0 mg/kg/injection, schedule: Q04DX002 (ip), vehicle: saline with Tween-80 96 % of control | dose: 400.0 mg/kg/injection, schedule: Q04DX003 (ip), vehicle: saline 98 % of control

CCOC(=O)Cc1c(C)c2c(O)cc(O)cc2oc1=O
inactive: [14] 97 % of control | [15] 89 % of control | [16] 97 % of control

COc1ccc(Cl)cc1NC(=O)Nc1cccc(F)c1
inactive: [6] 97 % of control | [12] 97 % of control | [13] 97 % of control

CCCCCC(C)(O)CC(C)(C)C (configuration not stated)
inactive: [14] 92 % of control | [15] 97 % of control | [16] 97 % of control

CN1CCc2ccc(Oc3cccc4c3CCN(C)C4)cc2C1
inactive: dose: 75.0 mg/kg/injection, schedule: Q01DX001 (ip), vehicle: other 112 % of control | dose: 150.0 mg/kg/injection, schedule: Q01DX001 (ip), vehicle: other 92 % of control

O=C(NCCCC(NC(=O)OCc1ccccc1)C(=O)NCCCNCCCCNCCCNC(=O)C(CCCNC(=O)OCc1ccccc1)NC(=O)OCc1ccccc1)OCc1ccccc1 (configuration not stated)
inactive: dose: 10.0 mg/kg/injection, schedule: Q01DX Z (ip), vehicle: saline 90 % of control
